Experimental data taken from US20220396567A1, “SUBSTITUTED PYRIMIDINE FOR THE TREATMENT AND PROPHYLAXIS OF HEPATITIS B VIRUS INFECTION” (Hoffmann-La Roche Inc., priority 2019, published 2022).

System: HBV
Experiment: Cryopreserved primary human hepatocytes (PHH) HBV infection assay, extracellular HBsAg by CLIA
Assay type: cell-based
Details: Hepatitis B virus, Hepatocyte, 216 h; HBV-infected cryopreserved PHH; extracellular HBsAg at 9 days post-compound treatment; 4 parameter logistic curve fit
Description: This assay is used to confirm the anti-HBV effect of the compounds in HBV PHH infection assay. Cryopreserved PHH (BioreclamationIVT, Lot YJM) was thawed at 37° C. and gently transferred into pre-warmed InVitroGRO HT medium (BioreclamationIVT, Cat. S03317). The mixture was centrifuged at 70 relative centrifugal force (RCF) for 3 min at RT, and the supernatant was discarded. Pre-warmed InVitroGRO CP medium (BioreclamationIVT, Cat #S03316) was added to the cell pellet to gently re-suspend cells. The cells were seeded at the density of 5.8×10^4 cells per well to collagen I coated 96-well plate (Gibco, Cat. A1142803) with the InVitroGRO CP medium. All plates were incubated at 37° C. with 5% CO2 and 85% humidity.
At 20 hrs after plating, the medium was changed to PHH culture medium (Dulbecco's Modified Eagle Medium (DMEM)/F12 (1:1) (Gibco, Cat. 11320-033), 10% fetal bovine serum (Gibco Cat. 10099141), 100 U/mL penicillin, 100 μg/mL streptomycin (Gibco, Cat. 151401-122), […] (Invitrogen Cat. PHG0311L), 20 ng/mL dexamethasone (Sigma, Cat. D4902) and 250 ng/mL human recombinant insulin (Gibco, Cat. 12585-014)). And the cells were incubated at 37° C. with 5% CO2 and 85% humidity for 4 hrs. The medium was then changed to pre-warmed PHH culture medium containing 4% polyethylene glycol (PEG) MW8000 (Sigma, Cat. P1458-50 ML) and 1% DMSO (Sigma, Cat. D2650). 5.8×10^6 genomic equivalents of HBV were added into the medium.
At 24 hrs post-infection, the cells were gently washed with PBS and refreshed with PHH culture medium supplemented with 1% DMSO, and 0.25 mg/mL Matrix gel (Corning, Cat. 356237) at 200 μL per well. All plates were immediately placed in at 37° C. CO2 incubator.
24 hrs later, serial dilutions of compounds made with DMSO were further diluted with the same culture medium (PHH culture medium supplemented with 1% DMSO and 0.25 mg/mL Matrix gel as described above) before they were added to the cells to reach desired final compound concentrations and 1% DMSO concentration. The medium containing the compounds were refreshed every three days.
At 9 days post-compound treatment, extracellular HBsAg level were measured with Chemiluminescence Immuno Assay (CLIA) kit (Autobio, HBsAg Quantitative CLIA).
HBsAg IC50 was derived from the dose-response curve using 4 parameter logistic curve fit method. The compounds of formula (I) have HBsAg IC50<20 μM, particularly <1 μM.

Row | SMILES | IC50
1 | N#Cc1c(NCc2cccc(C(F)(F)F)c2)nc(NCC(F)(F)F)nc1-c1ccco1 [Example 13, 4-(2-furyl)-2-(2,2,2-trifluoroethylamino)-6-[[3-(trifluoromethyl)phenyl]methylamino]pyrimidine-5-carbonitrile] | 3.93 µM
2 | COCCNc1nc(NC2(c3cccc(C(F)(F)F)c3)CC2)c(C(=O)O)c(-c2ccco2)n1 [Example 58, 4-(2-furyl)-2-(2-methoxyethylamino)-6-[[1-[3-(trifluoromethyl)phenyl]cyclopropyl]amino]pyrimidine-5-carboxylic Acid] | 5.96 µM
3 | CN(Cc1ccccc1)c1nc(N)nc(-c2ccco2)c1C(=O)O [Example 42, 2-amino-4-[benzyl(methyl)amino]-6-(2-furyl)pyrimidine-5-carboxylic Acid] | 5.27 µM
4 | Nc1nc(NCc2ccccc2N)cc(-c2cccs2)n1 [Example 36, N4-[(2-aminophenyl)methyl]-6-(2-thienyl)pyrimidine-2,4-diamine] | 6.62 µM
5 | N#Cc1c(NCc2ccccc2Cl)ncnc1-c1ccco1 [Example 24, 4-[(2-chlorophenyl)methylamino]-6-(2-furyl)pyrimidine-5-carbonitrile] | 3.07 µM
6 | Cc1ccccc1CNc1nc(N)nc(-c2ccco2)c1C(=O)O [Example 39, 2-amino-4-(2-furyl)-6-(o-tolylmethylamino)pyrimidine-5-carboxylic Acid] | 9.07 µM
7 | CN(C)c1nc(NCc2ccccc2N)cc(-c2ccco2)n1 [Example 33, N4-[(2-aminophenyl)methyl]-6-(2-furyl)-N2,N2-dimethyl-pyrimidine-2,4-diamine] | 7.58 µM
8 | CC(C)CNc1ncnc(-c2ccco2)c1C#N [Example 26, 4-(2-furyl)-6-(isobutylamino)pyrimidine-5-carbonitrile] | 5.7 µM
9 | Cc1nc(NCc2ccc(OC(C)C)c(Br)c2)c(C#N)c(-c2ccco2)n1 [Example 21, 4-[(3-bromo-4-isopropoxy-phenyl)methylamino]-6-(2-furyl)-2-methyl-pyrimidine-5-carbonitrile] | 6.66 µM
10 | N#Cc1c(NCC2CCCCC2)nc(N)nc1-c1ccco1 [Example 10, 2-amino-4-(cyclohexylmethylamino)-6-(2-furyl)pyrimidine-5-carbonitrile] | 3.62 µM
11 | COCCCNc1nc(NCc2cccc(C(F)(F)F)c2)c(C(=O)O)c(-c2ccco2)n1 [Example 51, 4-(2-furyl)-2-(3-methoxypropylamino)-6-[[3-(trifluoromethyl)phenyl]methylamino]pyrimidine-5-carboxylic Acid] | 9.61 µM
12 | COc1c(NCc2cccc(C(F)(F)F)c2)nc(N)nc1-c1ccco1 [Example 35, 6-(2-furyl)-5-methoxy-N4-[[3-(trifluoromethyl)phenyl]methyl]pyrimidine-2,4-diamine] | 7.85 µM
13 | CCNc1nc(NCc2cccc(C(F)(F)F)c2)c(C#N)c(-c2ccco2)n1 [Example 14, 2-(ethylamino)-4-(2-furyl)-6-[[3-(trifluoromethyl)phenyl]methylamino]pyrimidine-5-carbonitrile] | 2.76 µM
14 | N#Cc1c(NCc2ccccc2)ncnc1-c1ccco1 [Example 25, 4-(benzylamino)-6-(2-furyl)pyrimidine-5-carbonitrile] | 2.03 µM
15 | COCCNc1nc(NCc2cccc(C(F)(F)F)c2)c(C(=O)O)c(-c2ccco2)n1 [Example 46, 4-(2-furyl)-2-(2-methoxyethylamino)-6-[[3-(trifluoromethyl)phenyl]methylamino]pyrimidine-5-carboxylic Acid] | 4.31 µM
16 | N#Cc1c(NCC2CCCC2)ncnc1-c1ccco1 [Example 29, 4-(cyclopentylmethylamino)-6-(2-furyl)pyrimidine-5-carbonitrile] | 2.61 µM
17 | N#Cc1c(NCc2ccccc2N)ncnc1-c1ccco1 [Example 31, 4-[(2-aminophenyl)methylamino]-6-(2-furyl)pyrimidine-5-carbonitrile] | 0.27 µM
